# Assay results published in US20200283728A1, “MODIFIED T CELLS AND USES THEREOF” (MUSC FOUNDATION FOR RESEARCH DEVELOPMENT, priority 2017, published 2020).
# How the values were obtained:
# Assay type in all cases: cell-based, mouse
# [1] = test system: ICOS-stimulated Th17 cells; assay: Growth and survival of ICOS-stimulated Th17 cells expanded with inhibitors; settings: in vitro expansion, day 7
# Procedure: Expansion of Th17 cells with Wnt/β-catenin and PI3K inhibitors in vitro: […] splenocytes were activated with irradiated (10Gy) C57BL/6 splenocytes pulsed with […] peptide (1 μM) added at a 5:1 ratio in 24-well plates (1 mL media containing 1.5×10^6 cells/well). […] splenocytes were co-stimulated with soluble ICOS agonist (Clone 398.4A, BioLegend) and polarized toward Th17 phenotype as describe above. For in vitro expansion from day 0 of culture 10 μM Ly294002 (Cayman Chemical) or 10 μM CAL-101 (Selleckchem) and/or 60 μM indomethacin (Sigma-Aldrich) was added. Also dimethylosulfoxide 0.01% (Sigma-Aldrich) was added as a control. Th17 cultures were also supplemented with hrIL-2 (100 IU/mL) and rmIL-23 ([…]; R&D). Medium, including cytokines and inhibitors was refreshed every 2-3 days.
# [2] = test system: ICOS-activated Th17 cells; assay: Memory and regulatory phenotype of ICOS-stimulated Th17 cells expanded with inhibitors (flow cytometry); settings: day 8 in vitro
# Procedure: Expansion of Th17 cells with Wnt/β-catenin and PI3K inhibitors in vitro: TRP-1 splenocytes were activated with irradiated (10Gy) C57BL/6 splenocytes pulsed with TRP-1 peptide (1 μM) added at a 5:1 ratio in 24-well plates (1 mL media containing 1.5×10^6 cells/well). TRP-1 splenocytes were co-stimulated with soluble ICOS agonist (Clone 398.4A, BioLegend) and polarized toward Th17 phenotype as describe above. For in vitro expansion from day 0 of culture 10 μM Ly294002 (Cayman Chemical) or 10 μM CAL-101 (Selleckchem) and/or 60 μM indomethacin (Sigma-Aldrich) was added. Also dimethylosulfoxide 0.01% (Sigma-Aldrich) was added as a control. Th17 cultures were also supplemented with hrIL-2 (100 IU/mL) and rmIL-23 ([…]; R&D). Medium, including cytokines and inhibitors was refreshed every 2-3 days.
# Surface staining of Th17 cells was performed with anti-CD4-APCCy7, anti-Vβ14-FITC (BD Biosciences) anti-CD62L-APC, anti-CD44-PerCPCy5.5, anti-CCR6-PE, anti-CD69-PECy7, anti-CCR7-PE, anti-CD27-PE, anti-CD28-PerCPCy5.5, anti-ICOS-PE and anti-CD25-PECy7/FITC (BioLegend) and viability stain (Invitrogen) on day 8. For all intracellular staining of cytokines (anti-IL-17 PerCPCy5.5, anti-IFN-γ-v450, anti-IL-2-FITC, anti-IL-21-APC, anti-IL-22-PE, anti-TNF-α-FITC; BioLegend) and transcription factors (anti-RORγt-APC, anti-cMaf-PerCPCy5.5, anti-STAT-3-PE, anti-FoxP3-FITC/PE, anti-T-bet-v450; eBiosciences), cells were stimulated for 4-5 h with 50 ng/mL PMA and 750 ng/mL ionomycin (Sigma-Aldrich). Additional antibodies used include: CD127-PECy7 clone A019D5, CD25-APCCy7 clone BC96, CD4-APCCy7 OKT4, CD45RO-APC clone UCHL1, CD62L-FITC clone DREG-56, CD8-PerCPCy5.5 clone SKI, TIM3-PE clone F38-2E2 (biolegend); CCR7-PECy7 clone CCR7, CD8-V450 clone RPA-T8, PD1-FITC clone M1H4, (BD Biosciences). […] Data were analyzed with FlowJo software (TreeStar). […]
# [3] = test system: ICOS activated Th17 cells; assay: Cytokine production of inhibitor-primed Th17 cells after secondary re-stimulation in vitro (ELISA); settings: vs untreated or CAL-101-treated Th17 cells
# Source text: FIG. 11: Re-stimulation of ICOS activated Th17 cells in vitro restores their cytokine production after initial inhibition of PI3K/p110δ and Wnt/β-catenin signaling pathways. ELISA analysis of cytokine production 72 hrs after secondary re-stimulation in vitro using splenocytes pulsed with trp-1 peptide (5:1 ratio), PMA/Ionomycin or B16F10 cancer cells of ICOS stimulated Th17 cells expanded with inhibitors as indicated. Data represent mean±SEM of at least three independent experiments.
# Cytokine levels were measured using the mouse IL-17A, INF-γ, IL-2, IL-9, IL-10, IL-21, IL-22, CCL-20, GM-CSF ELISA kits (R&D) following the manufacturer's protocol.
smiles,measurement,setting,value
"COc1ccc2c(c1)c(CC(=O)O)c(C)n2C(=O)c1ccc(Cl)cc1 [Indo, indomethacin]",Th17 cell growth or survival,[1],did not impair
same,central memory phenotype (CD44^highCD62L^high),[2],did not impact their memory phenotype
same,IL-2 secretion after peptide re-stimulation,[3],significantly more
